Patent US10976312B2, “Compositions and methods for capture of cellular targets of bioactive agents” (Promega Corporation, priority 2012, dated 2021)
“And” between values parts separate entries of the source, which are not always exact repeats. Identical values can stand only once.

Assays:
[1] = target: T1, NANOLUC-p38 fusion protein (Homo sapiens, UniProt Q16539); test: HALOTAG dimer / HALOLINK plate capture of NANOLUC-p38 from cell lysates (Example 2); format: binding; details: cells treated with drug, listed as BIRB-chloroalkane
T1 construct: expressed in transfected cells
T1 sequence (Q16539 whole entry, the tested form may be a part): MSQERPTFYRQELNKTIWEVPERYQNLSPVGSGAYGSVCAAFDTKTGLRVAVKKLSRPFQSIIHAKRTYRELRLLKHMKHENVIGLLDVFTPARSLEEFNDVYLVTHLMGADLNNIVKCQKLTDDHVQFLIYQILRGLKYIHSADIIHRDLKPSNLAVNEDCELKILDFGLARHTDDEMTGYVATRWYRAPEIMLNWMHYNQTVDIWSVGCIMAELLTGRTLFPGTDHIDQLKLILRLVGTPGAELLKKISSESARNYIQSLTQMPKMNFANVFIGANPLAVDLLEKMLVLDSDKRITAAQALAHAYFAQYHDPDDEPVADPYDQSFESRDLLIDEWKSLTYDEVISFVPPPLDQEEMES
Protocol: Different amounts of a HALOTAG protein dimer (dimer of SEQ ID NO: 1) were added to cell lysates expressing a NANOLUC-p38 fusion protein (e.g., reporter/cellular-target fusion) which have or have not been treated with BIRB-chloroalkane (e.g., bioactive-agent/capture-ligand conjugate) as shown in Table 1. After 15 minute incubation, the samples were placed into wells of white, 96-well polystyrene plates activated with HALOTAG ligand (HALOLINK plates; Promega Corp.) and further incubated for 45 minutes. The wells were then washed PBS+0.05% Tween-20 (PBST). Then, 50 ul PBS followed by 50 ul of NANOGLO luciferase detection reagent was added to the wells, and luminescence measured.
Table 2 indicates differences in luminescence in samples with and without HALOTAG dimer (e.g., dimer of SEQ ID NO: 1) that indicate specific pull-down of the NANOLUC-p38 fusion protein.

[2] = target: T2, NANOLUC-p38 alpha fusion protein (Homo sapiens, UniProt Q16539); test: Pull-down of NANOLUC-p38 alpha fusion from living HEK293 cells onto HALOTAG protein beads (Example 3); format: cell-based
T2 construct: expressed in transfected cells; host or cells: HEK293
T2 sequence (Q16539 whole entry, the tested form may be a part): as above
Protocol: HEK293 cells in wells of a 96-well plate were transfected using PEI with plasmid DNA encoding NANOLUC-p38 fusion. Twenty-four hours post-transfection, cells were incubated with a final concentration of 10 μM PBI-4834 while control cells were not treated with the conjugated drug. Following equilibrium binding of 2 hours, the media was removed, cells were quickly washed with PBS and lysed in a detergent-based lysis buffer for 10 minutes. The cell lysates were then transferred to wells of a 96-well plate which contained 0.5 μl settled paramagnetic HALOTAG protein beads (Promega Corp.) and incubated with shaking for 15-45 minutes. Following binding, the unbound fraction was removed and the HALOTAG protein paramagnetic beads were washed. 150 uM unconjugated BIRB796 was then added and the captured NANOLUC-p38 alpha fusion was specifically released from the beads by competition with the unconjugated BIRB796 for 60 minutes. The released NANOLUC-p38 alpha fusion protein (+PBI-4834) and control (−PBI4834) was detected using NANOGLO luciferase reagent (Promega Corp.).

[3] = target: T3, p38 alpha (Homo sapiens, UniProt Q16539); test: Endogenous target pull-down from HEK293 cells, western blot and mass spec (Example 8); format: cell-based; details: 10 uM conjugate, listed as BIRB-CA
T3 construct: isolate, e.g., pull-down, endogenous targets from cells; endogenous in cells; host or cells: HEK293
T3 sequence (Q16539 whole entry): as the sequence (Q16539 whole entry, the tested form may be a part) above
Protocol: HEK293 cells were plated in a 6 well plate (2.5×10^5 cells). 48 hours post plating, a final concentration of 10 uM of BIRB-chloroalkane (PBI-4834) was added to 2 wells while control cells were not treated with the drug conjugate. Following equilibrium binding for 2 h, the media was removed, and the cells were quickly washed with PBS and lysed in detergent-based lysis buffer for 10 min. Cell lysates were then transferred to an Eppendorf® tube containing 12.5 ul of settled paramagnetic HALOTAG protein beads and incubated with shaking for 15 min. Following binding, the unbound fraction was removed, the HALOTAG protein paramagnetic beads washed 3×, and the captured targets specifically released from the beads by competition with 150 μM unconjugated BIRB796 for 60 min. The released targets were subjected to mass spec analysis as well as western blot analysis using an anti-p38 alpha antibody (Abcam).

[4] = target: T2, NANOLUC-p38 alpha fusion protein; test: Pull-down of NANOLUC-p38 alpha fusion from HEK293 cell lysates (Example 5); format: binding; details: 1 μM conjugate, HEK293 cell lysate
Protocol: In this example, BIRB-chloroalkane conjugate (PBI-4834) and BIRB chloroalkane conjugate containing a cleavable linker (PBI-5131) were utilized to pull-down a NANOLUC-p38 alpha fusion protein from HEK293 cell lysates. Lysate of cells expressing NANOLUC-p38 fusion were incubated with 1 μM PBI-4834 or PBI-5131 (final concentration) while control lysates were not treated with the conjugated drugs. Following equilibration binding for 2 h, the lysates were transferred to wells of a 96-well plate containing 0.5 μl settled paramagnetic HALOTAG protein beads and incubated with shaking for 45 min. Following binding the unbound fraction was removed, the HALOTAG protein paramagnetic beads were washed 3×, and the captured NANLUC-p38 alpha fusion specifically released from the beads by one of two methods: • 1. 150 μM unconjugated BIRB796 was used to compete for binding with the conjugated BIRB796 on the NANOLUC-p38 alpha fusion for 60 min. • 2. The NANOLUC-p38 alpha fusion was rapidly released through 10 min chemical cleavage of the chloroalkane linker with 10 mM of sodium hydrosulfite (PBI-5131 is a chloroalkane cleavable linker).

**Q.** What does the source list for `CC(C)(C)c1cc(NC(=O)Nc2ccccc2)n(-c2cccc(CNC(=O)CNC(=O)OCCOCCOCCOC(=O)NCCOCCOCCCCCCCl)c2)n1` [PBI-4834]?
**A.** luminescence (captured NANOLUC-p38) ([1]; 2 ug/well HALOTAG dimer): 236900 and 397958 and 431167; luminescence (captured NANOLUC-p38) ([1]; 6 ug/well HALOTAG dimer): 401205 and 538956 and 596504; luminescence (captured NANOLUC-p38) ([1]; 8 ug/well HALOTAG dimer): 395510 and 526903 and 610628; luminescence (captured NANOLUC-p38) ([1]; No HALOTAG dimer): 278085 and 275690 and 443682; expressed fusion specifically captured to the beads ([2]; 10 μM conjugate, HEK293 cells, HALOTAG protein beads): 1%; signal over background of capture ([2]; within 15 minutes of capture on HALOTAG protein beads): high signal over background; pull-down of endogenous p38 alpha [3]: specific pull down of p38; pull-down efficiency of NANOLUC-p38 alpha [4]: significantly higher compared to PBI-5131
